Laboratory results taken from patent US6737383B1, “Herbicidal oxadiazolidines” (priority 1999, dated 2004).

Assays:
[1] = test system: blackgrass; test: Test B pre/postemergence blackgrass; assay type: in vivo, Alopecurus myosuroides
Summary of the method: (§1)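 Test chemicals in a non-phytotoxic solvent mixture with surfactant were sprayed preemergence onto planted seeds and postemergence onto plants 2 to 18 cm tall (1- to 4-leaf stage). After twelve to sixteen days in a greenhouse, injury was visually rated against untreated controls from 0 (no effect) to 10 (complete control).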

[2] = test system: cocklebur; test: Test B pre/postemergence cocklebur; assay type: in vivo, Xanthium strumarium
Summary of the method: as §1

[3] = test system: corn; test: Test B pre/postemergence corn; assay type: in vivo, Zea mays
Summary of the method: as §1

[4] = test system: crabgrass; test: Test B pre/postemergence crabgrass; assay type: in vivo, Digitaria sanguinalis
Summary of the method: as §1

[5] = test system: giant foxtail; test: Test B pre/postemergence giant foxtail; assay type: in vivo, Setaria faberii
Summary of the method: as §1

[6] = test system: morningglory; test: Test B pre/postemergence morningglory; assay type: in vivo, Ipomoea hederacea
Summary of the method: as §1

[7] = test system: pigweed; test: Test B pre/postemergence pigweed; assay type: in vivo, Amaranthus retroflexus
Summary of the method: as §1

[8] = test system: rape; test: Test B pre/postemergence rape; assay type: in vivo, Brassica napus
Summary of the method: as §1

[9] = test system: soybean; test: Test B pre/postemergence soybean; assay type: in vivo, Glycine max
Summary of the method: as §1

[10] = test system: sugar beet; test: Test B pre/postemergence sugar beet; assay type: in vivo, Beta vulgaris
Summary of the method: as §1

[11] = test system: velvetleaf; test: Test B pre/postemergence velvetleaf; assay type: in vivo, Abutilon theophrasti
Summary of the method: as §1

[12] = test system: wheat; test: Test B pre/postemergence wheat; assay type: in vivo, Triticum aestivum
Summary of the method: as §1

[13] = test system: purple nutsedge; test: Test B pre/postemergence purple nutsedge; assay type: in vivo, Cyperus rotundus
Summary of the method: as §1

[14] = test system: rice; test: Test B flood test rice; assay type: in vivo, Oryza sativa
Summary of the method: (§2)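 Read-out is a visual response score from 0 (no effect) to 10 (complete control), assigned by comparison with untreated controls. Treatment was applied at the 2-leaf stage, and plants stayed in the greenhouse for twelve to sixteen days before scoring.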

[15] = test system: smallflower flatsedge; test: Test B flood test smallflower flatsedge; assay type: in vivo, Cyperus difformis
Summary of the method: as §2

[16] = test system: duck salad; test: Test B flood test duck salad; assay type: in vivo, Heteranthera limosa
Summary of the method: as §2

[17] = Postemergence, Rate 62 g/ha, scale 0 to 10, 0 is no effect, 10 is complete control
[18] = Postemergence, Rate 250 g/ha, scale 0 to 10, 0 no effect, 10 complete control
[19] = Preemergence, Rate 62 g/ha, scale 0 to 10 (0 no effect, 10 complete control)
[20] = Preemergence, Rate 125 g/ha, scale 0 to 10 (0 no effect, 10 complete control)
[21] = Preemergence, Rate 250 g/ha, scale of 0 to 10 where 0 is no effect and 10 is complete control
[22] = Preemergence, Rate 500 g/ha, scale 0 (no effect) to 10 (complete control)
[23] = Rate 125 g/ha, Postemergence, scale 0 to 10, 0 no effect, 10 complete control
[24] = Rate 500 g/ha, Postemergence, scale 0 to 10, 0 no effect, 10 complete control
[25] = Rate 125 g/ha, Postemergence section (flood test species), scale 0 to 10, 0 no effect, 10 complete control
[26] = Rate 500 g/ha, listed under Postemergence (flood test species), scale 0 to 10, 0 no effect, 10 complete control
[27] = flood test, listed under Postemergence, Rate 250 g/ha, scale 0 to 10, 0 no effect, 10 complete control

Cc1cccc(C(C)C)c1-n1c(=O)on(C(=O)N(c2ccc(F)cc2)C(C)C)c1=O [Compound 65]
9: Crabgrass plant response rating [4, 22] | Giant foxtail plant response rating [5, 22]
3: Giant foxtail plant response rating [5, 19] | Redroot pigweed plant response rating [7, 22] | Rape plant response rating [8, 22] | Velvetleaf plant response rating [11, 17] | Velvetleaf plant response rating [11, 18] | Velvetleaf plant response rating [11, 23] | Nutsedge plant response rating [13, 22] | Rice plant response rating [14, 26]
0: Blackgrass plant response rating [1, 17] | Blackgrass plant response rating [1, 18] | Blackgrass plant response rating [1, 19] | Plant response rating, Blackgrass [1, 20] | Plant response rating, Blackgrass [1, 21] | Blackgrass plant response rating [1, 22] | Blackgrass plant response rating [1, 23] | Blackgrass plant response rating [1, 24] | Cocklebur plant response rating [2, 17] | Cocklebur plant response rating [2, 18] | Cocklebur plant response rating [2, 19] | Plant response rating, Cocklebur [2, 20] | Plant response rating, Cocklebur [2, 21] | Cocklebur plant response rating [2, 22] | Cocklebur plant response rating [2, 23] | Cocklebur plant response rating [2, 24] | Corn plant response rating [3, 17] | Corn plant response rating [3, 18] | Corn plant response rating [3, 19] | Plant response rating, Corn [3, 20] | Plant response rating, Corn [3, 21] | Corn plant response rating [3, 22] | Corn plant response rating [3, 23] | Corn plant response rating [3, 24] | Crabgrass plant response rating [4, 17] | Crabgrass plant response rating [4, 18] | Crabgrass plant response rating [4, 19] | Crabgrass plant response rating [4, 23] | Crabgrass plant response rating [4, 24] | Giant foxtail plant response rating [5, 17] | Giant foxtail plant response rating [5, 18] | Giant foxtail plant response rating [5, 23] | Giant foxtail plant response rating [5, 24] | Morningglory plant response rating [6, 17] | Morningglory plant response rating [6, 19] | Plant response rating, Morningglory [6, 20] | Plant response rating, Morningglory [6, 21] | Morningglory plant response rating [6, 22] | Redroot pigweed plant response rating [7, 17] | Redroot pigweed plant response rating [7, 18] | Redroot pigweed plant response rating [7, 19] | Plant response rating, Redroot pigweed [7, 20] | Plant response rating, Redroot pigweed [7, 21] | Redroot pigweed plant response rating [7, 23] | Redroot pigweed plant response rating [7, 24] | Rape plant response rating [8, 17] | Rape plant response rating [8, 18] | Rape plant response rating [8, 19] | Plant response rating, Rape [8, 20] | Plant response rating, Rape [8, 21] | Rape plant response rating [8, 23] | Rape plant response rating [8, 24] | Soybean plant response rating [9, 19] | Plant response rating, Soybean [9, 20] | Plant response rating, Soybean [9, 21] | Soybean plant response rating [9, 22] | Sugarbeets plant response rating [10, 17] | Sugarbeets plant response rating [10, 18] | Sugarbeets plant response rating [10, 19] | Plant response rating, Sugarbeets [10, 20] | Plant response rating, Sugarbeets [10, 21] | Sugarbeets plant response rating [10, 22] | Sugarbeets plant response rating [10, 23] | Sugarbeets plant response rating [10, 24] | Velvetleaf plant response rating [11, 19] | Plant response rating, Velvetleaf [11, 20] | Plant response rating, Velvetleaf [11, 21] | Velvetleaf plant response rating [11, 22] | Wheat plant response rating [12, 17] | Wheat plant response rating [12, 18] | Wheat plant response rating [12, 19] | Plant response rating, Wheat [12, 20] | Plant response rating, Wheat [12, 21] | Wheat plant response rating [12, 22] | Wheat plant response rating [12, 23] | Wheat plant response rating [12, 24] | Nutsedge plant response rating [13, 17] | Nutsedge plant response rating [13, 18] | Nutsedge plant response rating [13, 19] | Plant response rating, Nutsedge [13, 20] | Nutsedge plant response rating [13, 23] | Nutsedge plant response rating [13, 24] | Rice plant response rating [14, 17] | Rice plant response rating [14, 25] | Rice plant response rating [14, 27] | S. Flatsedge plant response rating [15, 17] | S. Flatsedge plant response rating [15, 25] | S. Flatsedge plant response rating [15, 26] | S. Flatsedge plant response rating [15, 27] | Ducksalad plant response rating [16, 17] | Ducksalad plant response rating [16, 25] | Ducksalad plant response rating [16, 26] | Ducksalad plant response rating [16, 27]
4: Plant response rating, Crabgrass [4, 21] | Plant response rating, Giant foxtail [5, 20] | Plant response rating, Giant foxtail [5, 21] | Velvetleaf plant response rating [11, 24]
1: Morningglory plant response rating [6, 18] | Morningglory plant response rating [6, 23] | Soybean plant response rating [9, 17] | Soybean plant response rating [9, 18] | Soybean plant response rating [9, 23] | Soybean plant response rating [9, 24]
2: Plant response rating, Crabgrass [4, 20] | Morningglory plant response rating [6, 24] | Plant response rating, Nutsedge [13, 21]
